Results reported in PubChem BioAssay (NCI).
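These data come from cells grown in 96-well plates and exposed to compound for 48 hours at five concentrations. TGI marks complete inhibition of growth.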

What was measured:
Experiment in all cases: NCI-60 cell line screen, 48 h
[1] = test system: OVCAR-4 ovarian
[2] = test system: UACC-257 melanoma
[3] = test system: HCT-15 colon
[4] = test system: SF-539 CNS
[5] = test system: UACC-62 melanoma
[6] = test system: COLO 205 colon
[7] = test system: RPMI-8226 leukemia
[8] = test system: SF-268 CNS
[9] = test system: MALME-3M melanoma
[10] = test system: HL-60(TB) leukemia
[11] = test system: LOX IMVI melanoma
[12] = test system: OVCAR-3 ovarian
[13] = test system: SK-MEL-28 melanoma
[14] = test system: HOP-92 NSCLC
[15] = test system: DU-145 prostate
[16] = test system: MDA-N
[17] = test system: SF-295 CNS
[18] = test system: CCRF-CEM leukemia
[19] = test system: T-47D breast
[20] = test system: SK-MEL-5 melanoma
[21] = test system: MDA-MB-435
[22] = test system: NCI-H23 lung
[23] = test system: A498 renal
[24] = test system: TK-10 renal
[25] = test system: MDA-MB-231 breast
[26] = test system: OVCAR-5 ovarian
[27] = test system: K-562 leukemia
[28] = test system: BT-549 breast
[29] = test system: CAKI-1 renal
[30] = test system: SNB-19 CNS
[31] = test system: NCI-H226 lung
[32] = test system: RXF 393 renal
[33] = test system: HS 578T breast
[34] = test system: HCC-2998 colon
[35] = test system: SR leukemia
[36] = test system: EKVX NSCLC
[37] = test system: SK-MEL-2 melanoma
[38] = test system: KM12 colon
[39] = test system: ACHN renal
[40] = test system: IGROV1 ovarian
[41] = test system: 786-0 renal
[42] = test system: MCF7 breast
[43] = test system: UO-31 renal
[44] = test system: SNB-75 CNS
[45] = test system: U251 CNS
[46] = test system: NCI/ADR-RES ovarian
[47] = test system: HCT-116 colon
[48] = test system: HT29 colon
[49] = test system: SN12C renal
[50] = test system: SW-620 colon
[51] = test system: HOP-62 NSCLC
[52] = test system: MOLT-4 leukemia
[53] = test system: A549 NSCLC
[54] = test system: M14 melanoma
[55] = test system: OVCAR-8 ovarian
[56] = test system: SK-OV-3 ovarian
[57] = test system: NCI-H522 lung

`CC1OC(OC2C(O[C@@H]3C[C@@H]4CC[C@@H]5[C@H](CC[C@]6(C)C7C(C[C@@H]56)O[C@]5(CC[C@@H](C)CO5)[C@H]7C)[C@@]4(C)C[C@H]3O)OC(CO)C(O)C2O)C(O)C(O)C1O` (stereo partly specified) was tested, and the TGI [1] was 3.28 µM, the TGI [2] was 3.35 µM and the TGI [3] was 3.27 µM. It also gave a TGI [4] of 3.02 µM, a TGI [5] of 3.16 µM and a TGI [6] of 3.41 µM. For the same compound, the TGI [7] was 4.9 µM, the TGI [8] was 3.5 µM and the TGI [9] was 3.15 µM. It also gave a TGI [10] of 4.48 µM, a TGI [11] of 3.29 µM and a TGI [12] of 3.02 µM. The TGI [13] was 3.43 µM, the TGI [14] was 6.25 µM and the TGI [15] was 3.13 µM. For the same compound, the TGI [16] was 13.6 µM, the TGI [17] was 3.2 µM and the TGI [18] was 3.52 µM. It also gave a TGI [19] of 3.7 µM, a TGI [20] of 4.22 µM and a TGI [21] of 2.86 µM. The TGI [22] was 3.14 µM, the TGI [23] was 5.29 µM and the TGI [24] was 3.06 µM. It also gave a TGI [25] of 3.19 µM, a TGI [26] of 2.85 µM and a TGI [27] of 5.94 µM. The TGI [28] was 4.15 µM, the TGI [29] was 3.22 µM and the TGI [30] was 33 µM. For the same compound, the TGI [31] was 6.08 µM, the TGI [32] was 3.65 µM and the TGI [33] was 5.26 µM. The TGI [34] was 3.21 µM and the TGI [35] was 5.24 µM.

`CCCCc1ccc(Nc2nc(N)c3ncn(COCCO)c3n2)cc1` was tested, and the TGI [1] was greater than 100 µM, the TGI [36] was greater than 100 µM and the TGI [37] was 37.5 µM. For the same compound, the TGI [2] was 44.4 µM, the TGI [3] was 38.6 µM and the TGI [38] was greater than 100 µM. It also gave a TGI [39] of 65.6 µM, a TGI [40] of 60.8 µM and a TGI [41] of 65.4 µM. For the same compound, the TGI [4] was 60.6 µM, the TGI [42] was greater than 100 µM and the TGI [5] was 38.5 µM. For the same compound, the TGI [43] was greater than 100 µM, the TGI [44] was 80.4 µM and the TGI [6] was 43.8 µM. The TGI [7] was 94.2 µM, the TGI [8] was greater than 100 µM and the TGI [9] was 52.7 µM. The TGI [10] was greater than 100 µM, the TGI [11] was 37.4 µM and the TGI [45] was 66.4 µM. For the same compound, the TGI [46] was 71.7 µM, the TGI [47] was 62.2 µM and the TGI [48] was 57.2 µM. It also gave a TGI [49] greater than 100 µM, a TGI [50] greater than 100 µM and a TGI [12] of 40.3 µM. The TGI [51] was 45.1 µM, the TGI [14] was 45.1 µM and the TGI [15] was greater than 100 µM. For the same compound, the TGI [16] was greater than 100 µM, the TGI [17] was 41.2 µM and the TGI [52] was greater than 100 µM. It also gave a TGI [18] greater than 100 µM, a TGI [19] of 91.6 µM and a TGI [20] of 32.7 µM. The TGI [21] was 51.2 µM, the TGI [22] was 56.3 µM and the TGI [23] was 88.7 µM. The TGI [24] was greater than 100 µM, the TGI [25] was 76.7 µM and the TGI [26] was greater than 100 µM. The TGI [27] was greater than 100 µM, the TGI [28] was 59.8 µM and the TGI [53] was greater than 100 µM. The TGI [54] was 45.3 µM, the TGI [29] was greater than 100 µM and the TGI [55] was 92.6 µM. For the same compound, the TGI [30] was greater than 100 µM, the TGI [31] was greater than 100 µM and the TGI [32] was 98.2 µM. It also gave a TGI [33] of 75 µM, a TGI [34] of 48.9 µM and a TGI [56] of 26.9 µM. The TGI [57] was 69.7 µM and the TGI [35] was greater than 100 µM.
